Patent publication US20240400591A1 (Jacobio Pharmaceuticals Co., Ltd., priority 2021, published 2024)

Target: T1, His-p53 Y220C (94-294) protein (Homo sapiens, UniProt P04637, Y220C)
T1 construct: His-p53 Y220C (94-294) protein
Experiment: In vitro DNA binding assay (HTRF)
Format: biochemical
Conditions: % activation normalized to 2 μM Ref-1a high control

SMILES	EC50 [nM]
COc1nc(P(C)(C)=O)cnc1NCC#Cc1sc2c(N[C@@H]3CCN(C)C[C@@H]3F)cccc2c1CC(F)(F)F [Example 209, (5-((3-(7-(((3S,4R)-3-fluoro-1-methylpiperidin-4-yl)amino)-3-(2,2,2-trifluoroethyl)benzo[b]thiophen-2-yl)prop-2-yn-1-yl)amino)-6-methoxypyrazin-2-yl)dimethylphosphine oxide]	211
COc1cc(P(C)(C)=O)cnc1NCC#Cc1sc2c(N[C@@H]3CCN(C)C[C@@H]3F)cccc2c1CC(F)(F)F [Example 207, (6-((3-(7-(((3S,4R)-3-fluoro-1-methylpiperidin-4-yl)amino)-3-(2,2,2-trifluoroethyl)benzo[b]thiophen-2-yl)prop-2-yn-1-yl)amino)-5-methoxypyridin-3-yl)dimethylphosphine oxide]	126
COc1nc(P(C)(C)=O)ccc1NCC#Cc1sc2c(N[C@@H]3CCN(C4CCOCC4)C[C@@H]3F)cccc2c1CC(F)(F)F [Example 179, (5-((3-(7-(((3S,4R)-3-fluoro-1-(tetrahydro-2H-pyran-4-yl)piperidin-4-yl)amino)-3-(2,2,2-trifluoroethyl)benzo[b]thiophen-2-yl)prop-2-yn-1-yl)amino)-6-methoxypyridin-2-yl)dimethylphosphine oxide]	134
CN1CC[C@H](Nc2cccc3c(CC(F)(F)F)c(C#CCNc4ccc(P(C)(C)=O)cc4OC(F)(F)F)sc23)[C@H](F)C1 [Example 137, (4-((3-(7-(((3R,4S)-3-fluoro-1-methylpiperidin-4-yl)amino)-3-(2,2,2-trifluoroethyl)benzo[b]thiophen-2-yl)prop-2-yn-1-yl)amino)-3-(trifluoromethoxy)phenyl)dimethylphosphine oxide]	78
COc1cc(P(C)(C)=O)ccc1NCC#Cc1sc2c(NC[C@@]34CCCN3C[C@H](F)C4)cccc2c1CC(F)(F)F [Example 70, (4-((3-(7-((((2R,7aS)-2-fluorotetrahydro-1H-pyrrolizin-7a(5H)-yl)methyl)amino)-3-(2,2,2-trifluoroethyl)benzo[b]thiophen-2-yl)prop-2-yn-1-yl)amino)-3-methoxyphenyl)dimethylphosphine oxide]	229
COc1cc(S(C)(=O)=O)ccc1NCC#Cc1sc2c(NC3CC4(CCN(C)CC4)C3)cccc2c1CC(F)(F)F [Example 33, N-(2-(3-((2-methoxy-4-(methylsulfonyl)phenyl)amino)prop-1-yn-1-yl)-3-(2,2,2-trifluoroethyl)benzo[b]thiophen-7-yl)-7-methyl-7-azaspiro[3.5]nonan-2-amine]	621
COc1cc(P(C)(C)=O)ccc1NCC#Cc1sc2c(N[C@H]3CCN(C)C[C@@H]3F)cccc2c1-c1ccc(F)cc1 (racemic) [Example 139, (4-((3-(7-(((E)-3-fluoro-1-methylpiperidin-4-yl)amino)-3-(4-fluorophenyl)benzo[b]thiophen-2-yl)prop-2-yn-1-yl)amino)-3-methoxyphenyl)dimethylphosphine oxide]	1220
CN1CCC(Nc2cccc3c(CC(F)(F)F)c(C#CCNc4ccc(S(C)(=O)=O)cc4OCC(F)(F)F)sc23)CC1 [Example 13, 1-methyl-N-(2-(3-((4-(methylsulfonyl)-2-(2,2,2-trifluoroethoxy)phenyl)amino)prop-1-yn-1-yl)-3-(2,2,2-trifluoroethyl)benzo[b]thiophen-7-yl)piperidin-4-amine]	170
COc1cc(S(C)(=O)=O)ccc1NCC#Cc1sc2c(NC3CCCN(C)CC3)cccc2c1CC(F)(F)F (stereo not drawn) [Example 55, N-(2-(3-((2-methoxy-4-(methylsulfonyl)phenyl)amino)prop-1-yn-1-yl)-3-(2,2,2-trifluoroethyl)benzo[b]thiophen-7-yl)-1-methylazepan-4-amine]	122
CCP(=O)(CC)c1ccc(NCC#Cc2sc3c(N[C@@H]4CCN(C5CCOCC5)C[C@@H]4F)cccc3c2CC(F)(F)F)c(OC)c1 [Example 156, diethyl(4-((3-(7-(((3S,4R)-3-fluoro-1-(tetrahydro-2H-pyran-4-yl)piperidin-4-yl)amino)-3-(2,2,2-trifluoroethyl)benzo[b]thiophen-2-yl)prop-2-yn-1-yl)amino)-3-methoxyphenyl)phosphine oxide]	108
COc1cc(S(C)(=O)=O)ccc1NCC#Cc1sc2c(NC3CCN(C)CC3)cccc2c1CC(F)(F)F [Example 3, N-(2-(3-((2-methoxy-4-(methylsulfonyl)phenyl)amino)prop-1-yn-1-yl)-3-(2,2,2-trifluoroethyl)benzo[b]thiophen-7-yl)-1-methylpiperidin-4-amine]	81
COc1cc(P(C)(C)=O)ccc1NCC#Cc1sc2c(NC3CCN(C)CC3(F)F)cccc2c1CC(F)(F)F (stereo not drawn) [Example 43, (4-((3-(7-((3,3-difluoro-1-methylpiperidin-4-yl)amino)-3-(2,2,2-trifluoroethyl)benzo[b]thiophen-2-yl)prop-2-yn-1-yl)amino)-3-methoxyphenyl)dimethylphosphine oxide]	390
CN1CC[C@@H](Nc2cccc3c(CC(F)(F)F)c(C#CCNc4ccc(P(C)(C)=O)nc4C#N)sc23)[C@@H](F)C1 [Example 224, 6-(dimethylphosphoryl)-3-((3-(7-(((3S,4R)-3-fluoro-1-methylpiperidin-4-yl)amino)-3-(2,2,2-trifluoroethyl)benzo[b]thiophen-2-yl)prop-2-yn-1-yl)amino)picolinonitrile]	87
COc1cc(S(C)(=O)=O)ccc1NCC#Cc1sc2c(NC3C4CCC3CN(C)C4)cccc2c1CC(F)(F)F (stereo not drawn) [Example 25, N-(2-(3-((2-methoxy-4-(methylsulfonyl)phenyl)amino)prop-1-yn-1-yl)-3-(2,2,2-trifluoroethyl)benzo[b]thiophen-7-yl)-3-methyl-3-azabicyclo[3.2.1]octan-8-amine]	312
COc1nc(C(N)=O)ccc1NCC#Cc1sc2c(NC3CCN(C)CC3F)cccc2c1CC(F)(F)F (stereo not drawn) [Example 63, 5-((3-(7-(((Z)-3-fluoro-1-methylpiperidin-4-yl)amino)-3-(2,2,2-trifluoroethyl)benzo[b]thiophen-2-yl)prop-2-yn-1-yl)amino)-6-methoxypicolinamide]	220
CN1CCC(Nc2cccc3c(CC(F)(F)F)c(C#CCNc4ccc(S(C)(=O)=O)cc4OCC(F)F)sc23)CC1 [Example 12, N-(2-(3-((2-(2,2-difluoroethoxy)-4-(methylsulfonyl)phenyl)amino)prop-1-yn-1-yl)-3-(2,2,2-trifluoroethyl)benzo[b]thiophen-7-yl)-1-methylpiperidin-4-amine]	141
COc1cc(S(N)(=O)=O)ccc1NCC#Cc1sc2c(NC3CCN(C)CC3F)cccc2c1CC(F)(F)F (stereo not drawn) [Example 40, 4-((3-(7-(((Z)-3-fluoro-1-methylpiperidin-4-yl)amino)-3-(2,2,2-trifluoroethyl)benzo[b]thiophen-2-yl)prop-2-yn-1-yl)amino)-3-methoxybenzenesulfonamide]	60
COc1cc(S(C)(=O)=O)ccc1NCC#Cc1sc2c(NC3CC4CCC(C3)N4C)cccc2c1CC(F)(F)F (stereo not drawn) [Example 26, N-(2-(3-((2-methoxy-4-(methylsulfonyl)phenyl)amino)prop-1-yn-1-yl)-3-(2,2,2-trifluoroethyl)benzo[b]thiophen-7-yl)-8-methyl-8-azabicyclo[3.2.1]octan-3-amine]	169
